For assay [1], the target named is T1, hα2A receptor (Homo sapiens, UniProt P08913).
T1 construct: expressed in transfected cells; host or cells: CHO cells, stably transfected; membrane preparation
T1 sequence (P08913 1-465): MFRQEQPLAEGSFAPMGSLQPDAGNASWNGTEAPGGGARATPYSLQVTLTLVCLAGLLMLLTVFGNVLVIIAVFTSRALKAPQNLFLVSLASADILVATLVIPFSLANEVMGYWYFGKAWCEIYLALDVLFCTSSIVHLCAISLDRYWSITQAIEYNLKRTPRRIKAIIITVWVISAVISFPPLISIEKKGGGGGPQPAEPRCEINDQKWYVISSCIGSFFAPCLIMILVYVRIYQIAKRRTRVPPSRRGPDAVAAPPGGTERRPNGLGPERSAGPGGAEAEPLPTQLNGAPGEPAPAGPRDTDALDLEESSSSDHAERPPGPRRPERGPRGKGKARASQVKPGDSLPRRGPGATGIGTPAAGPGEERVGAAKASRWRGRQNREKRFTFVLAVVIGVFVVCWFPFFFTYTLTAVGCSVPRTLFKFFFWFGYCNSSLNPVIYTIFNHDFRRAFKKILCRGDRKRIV
Briefly: Radioligand binding experiment for α2A-adrenoceptor ([3H]raulwolscine, CHO cell membranes). As to conditions: [3H]raulwolscine binding, read-out: h-α2A pIC50 (converted).

Assay [2] addresses T2, hα2C receptor (Homo sapiens, UniProt P18825).
T2 construct: expressed in transfected cells; host or cells: CHO cells, stably transfected; membrane preparation
T2 sequence (P18825 1-462): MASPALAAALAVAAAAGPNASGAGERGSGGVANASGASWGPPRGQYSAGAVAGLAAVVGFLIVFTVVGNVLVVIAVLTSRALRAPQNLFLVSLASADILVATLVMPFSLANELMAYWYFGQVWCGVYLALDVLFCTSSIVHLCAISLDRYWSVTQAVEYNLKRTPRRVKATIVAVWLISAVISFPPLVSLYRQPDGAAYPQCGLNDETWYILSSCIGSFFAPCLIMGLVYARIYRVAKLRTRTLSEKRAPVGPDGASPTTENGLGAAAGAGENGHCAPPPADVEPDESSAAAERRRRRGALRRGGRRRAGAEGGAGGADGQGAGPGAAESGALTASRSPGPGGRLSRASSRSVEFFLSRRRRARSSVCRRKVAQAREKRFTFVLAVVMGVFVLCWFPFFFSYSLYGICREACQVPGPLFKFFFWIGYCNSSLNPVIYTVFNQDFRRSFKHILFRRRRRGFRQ
As to the kind of experiment: Radioligand binding experiment for α2C-adrenoceptor ([3H]raulwolscine, CHO cell membranes). The following applies: [3H]raulwolscine binding, read-out: h-α2C pIC50 (converted).

For assay [3], the target named is T3, 5HT-Transporter (Homo sapiens, UniProt P31645).
T3 construct: Human platelet membranes (Oceanix Biosciences Corporation, Hanover, Md., USA) were thawed; tissue Oceanix Biosciences Corporation, Hanover, Md., USA; host or cells: human platelet membranes
T3 sequence (P31645 whole entry): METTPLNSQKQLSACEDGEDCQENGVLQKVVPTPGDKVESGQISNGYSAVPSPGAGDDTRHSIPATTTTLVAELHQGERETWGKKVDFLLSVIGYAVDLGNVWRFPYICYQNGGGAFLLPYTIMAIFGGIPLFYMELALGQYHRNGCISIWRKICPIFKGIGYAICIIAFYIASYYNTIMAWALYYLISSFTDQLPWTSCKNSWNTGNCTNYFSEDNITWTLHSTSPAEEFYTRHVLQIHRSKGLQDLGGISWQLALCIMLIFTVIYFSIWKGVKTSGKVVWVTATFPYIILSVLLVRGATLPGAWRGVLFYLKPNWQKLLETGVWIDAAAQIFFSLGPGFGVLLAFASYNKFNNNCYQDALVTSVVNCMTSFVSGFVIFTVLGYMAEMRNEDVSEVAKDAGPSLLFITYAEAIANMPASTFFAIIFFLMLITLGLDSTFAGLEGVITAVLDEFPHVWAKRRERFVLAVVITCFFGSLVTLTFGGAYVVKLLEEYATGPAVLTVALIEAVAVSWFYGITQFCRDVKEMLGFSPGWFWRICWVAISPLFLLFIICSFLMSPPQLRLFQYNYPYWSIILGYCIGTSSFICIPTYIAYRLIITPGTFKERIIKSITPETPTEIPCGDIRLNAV
Briefly: Binding experiment for the 5HT-transporter ([3H]paroxetine, human platelet membranes). The following applies: [3H]paroxetine 0.5 nM, read-out: h-5HTT pIC50 (converted). In short, it runs like this: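 Competition binding of [3H]paroxetine to human platelet membranes in Tris-HCl 50 mM, 120 mM NaCl, 5 mM KCl, with filtration and scintillation counting.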

Take `C/C(=C\c1ccccc1)CN1CCC(Nc2nccn(Cc3ccncc3)c2=O)CC1` [6-14]: the IC50 in assay [1] is 0.158 µM; in assay [2], 0.0398 µM; in assay [3] it was 2.51 µM.

With `C/C(=C\c1ccccc1)CN1CCC(Nc2nccn(CC(=O)c3ccc4c(c3)NC(=O)CO4)c2=O)CC1` [6-15], the IC50 in assay [1] is 0.0158 µM; in assay [2], 0.02 µM; in assay [3] it was 1 µM.

Consider `C/C(=C\c1ccccc1)CN1CCC(Nc2nccn(-c3cnc4ccccc4c3)c2=O)CC1` [6-16], for which the IC50 in assay [1] was 0.0631 µM; in assay [2], 0.0158 µM; in assay [3] it was 0.316 µM.

On to `C/C(=C\c1ccccc1)CN1CCC(Nc2nccn(Cc3ccc4ccccc4n3)c2=O)CC1` [6-17], for which the IC50 in assay [1] was 0.0794 µM; in assay [2], 0.0158 µM; in assay [3], 0.316 µM.

On to `CCn1ccnc(NC2CCN(C/C(C)=C/c3ccccc3)CC2)c1=O` [7-3], for which the IC50 is 0.0631 µM in assay [1], 0.0158 µM in assay [2] and 3.98 µM in assay [3].

As to `CCCn1ccnc(NC2CCN(C/C(C)=C/c3ccccc3)CC2)c1=O` [7-4], the results for the IC50 in assay [1], in assay [2] and in assay [3] were 0.0251 µM, 0.0126 µM and 0.631 µM, respectively.

On to `CCCCCn1ccnc(NC2CCN(C/C(C)=C/c3ccccc3)CC2)c1=O` [7-5], for which the IC50 in assay [1] is 0.1 µM; in assay [2], 0.0316 µM; in assay [3] it was 0.251 µM.

`C/C(=C\c1ccccc1)CN1CCC(Nc2nccn(CC3CCCCC3)c2=O)CC1` [7-6]: the results for the IC50 in assay [1], in assay [2] and in assay [3] were 0.2 µM, 0.0501 µM and 1.58 µM, respectively.

Consider `C/C(=C\c1ccccc1)CN1CCC(Nc2nccn(CC(=O)C(C)(C)C)c2=O)CC1` [7-8], for which the IC50 in assay [1] was 0.126 µM; in assay [2], 0.0126 µM; in assay [3] it was more than 10 µM.

Consider `C/C(=C\c1ccccc1)CN1CCC(Nc2nccn(CC(=O)C(C)(C)C)c2=O)CC1` [7-9], for which the results for the IC50 in assay [1], in assay [2] and in assay [3] were 0.0794 µM, 0.00794 µM and 5.01 µM, respectively.

As for `C/C(=C\c1ccccc1)CN1CCC(Nc2nccn(CC(=O)C34CC5CC(CC(C5)C3)C4)c2=O)CC1` [7-10], the figures for the IC50 in assay [1], in assay [2] and in assay [3] were 0.0501 µM, 0.01 µM and 1.26 µM, respectively.

Consider `C/C(=C\c1ccccc1)CN1CCN(c2nccn(Cc3ccc(CN)cc3)c2=O)CC1` [8-1], for which the IC50 in assay [1] was 0.0398 µM; in assay [2] it was 0.0126 µM; in assay [3], 1 µM.

`C/C(=C\c1ccccc1)CN1CCN(c2nccn(CC(=O)N(C)C)c2=O)CC1` [8-2]: the IC50 in assay [1] was 1.58 µM; in assay [2] it was 0.158 µM; in assay [3] it was more than 10 µM.

As to `C/C(=C\c1ccccc1)CN1CCN(c2nccn(CCCNC(=O)OC(C)(C)C)c2=O)CC1` [8-3], the IC50 in assay [1] is 0.398 µM; in assay [2], 0.0794 µM; in assay [3] it was 2.51 µM.

For the compound `C/C(=C\c1ccccc1)CN1CCN(c2nccn(Cc3ccc(CNC(=O)OC(C)(C)C)cc3)c2=O)CC1` [8-4], the IC50 is 0.158 µM in assay [1], 0.0794 µM in assay [2] and 1.26 µM in assay [3].

On to `C/C(=C\c1ccccc1)CN1CCN(c2nccn(CCN3CCOCC3)c2=O)CC1` [9-2], for which the IC50 in assay [1] was 1 µM; in assay [2], 0.2 µM; in assay [3] it was 7.94 µM.

Consider `COCCCn1ccnc(N2CCN(C/C(C)=C/c3ccccc3)CC2)c1=O` [10-1], for which the results for the IC50 in assay [1], in assay [2] and in assay [3] were 0.316 µM, 0.0794 µM and 7.94 µM, respectively.

Regarding `C/C(=C\c1ccccc1)CN1CCN(c2nccn(CCOc3ccccc3)c2=O)CC1` [10-2], the IC50 in assay [1] was 0.251 µM; in assay [2], 0.1 µM; in assay [3], 1.26 µM.

As for `C/C(=C\c1ccccc1)CN1CCN(c2nccn(CCOCc3ccccc3)c2=O)CC1` [10-3], the figures for the IC50 in assay [1], in assay [2] and in assay [3] were 0.398 µM, 0.0794 µM and 1.26 µM, respectively.

Turning to `CSCCn1ccnc(N2CCN(C/C(C)=C/c3ccccc3)CC2)c1=O` [11-1], the IC50 in assay [1] was 0.316 µM; in assay [2], 0.0794 µM; in assay [3], 6.31 µM.

Take `C/C(=C\c1ccccc1)CN1CCN(c2nccn(Cc3ccccc3)c2=O)CC1` [12-1]: the results for the IC50 in assay [1], in assay [2] and in assay [3] were 0.0631 µM, 0.0631 µM and 3.16 µM, respectively.

As for `C/C(=C\c1ccccc1)CN1CCN(c2nccn(CCCc3ccccc3)c2=O)CC1` [12-2], the IC50 is 0.2 µM in assay [1], 0.0631 µM in assay [2] and 1.26 µM in assay [3].

With `C/C(=C\c1ccccc1)CN1CCN(c2nccn(C/C=C/c3ccccc3)c2=O)CC1` [12-3], the IC50 in assay [1] was 0.398 µM; in assay [2] it was 0.126 µM; in assay [3], 1.26 µM.

For the compound `C/C(=C\c1ccccc1)CN1CCN(c2nccn(CC(=O)c3ccccc3)c2=O)CC1` [12-5], the IC50 in assay [1] is 0.316 µM; in assay [2], 0.0501 µM; in assay [3], 3.98 µM.

Regarding `C/C(=C\c1ccccc1)CN1CCN(c2nccn(CC(=O)c3ccc(-c4ccccc4)cc3)c2=O)CC1` [12-6], the IC50 is 0.398 µM in assay [1], 0.251 µM in assay [2] and 2 µM in assay [3].

Turning to `C/C(=C\c1ccccc1)CN1CCN(c2nccn(Cc3ccc4ccccc4c3)c2=O)CC1` [12-7], the values for the IC50 in assay [1], in assay [2] and in assay [3] were 0.126 µM, 0.126 µM and 1 µM, respectively.

Consider `C/C(=C\c1ccccc1)CN1CCN(c2nccn(Cc3ccco3)c2=O)CC1` [13-1], for which the IC50 in assay [1] is 0.0501 µM; in assay [2], 0.0631 µM; in assay [3], 6.31 µM.

On to `C/C(=C\c1ccccc1)CN1CCN(c2nccn(Cc3ccc(Cl)s3)c2=O)CC1` [13-2], for which the IC50 in assay [1] was 0.0794 µM; in assay [2], 0.0398 µM; in assay [3] it was 3.98 µM.

For `C/C(=C\c1ccccc1)CN1CCN(c2nccn(Cc3csc(C)n3)c2=O)CC1` [13-3], the results for the IC50 in assay [1], in assay [2] and in assay [3] were 0.316 µM, 0.0794 µM and 6.31 µM, respectively.

With `COc1ccc(-c2nnc(Cn3ccnc(N4CCN(C/C(C)=C/c5ccccc5)CC4)c3=O)o2)cc1` [13-4], the figures for the IC50 in assay [1], in assay [2] and in assay [3] were 0.0631 µM, 0.0631 µM and 0.398 µM, respectively.

Take `C/C(=C\c1ccccc1)CN1CCN(c2ncc[nH]c2=O)CC1` [14-1]: the IC50 in assay [1] was 0.158 µM; in assay [2], 0.0398 µM; in assay [3] it was 3.98 µM.

On to `CCCn1ccnc(N2CCN(C/C(C)=C/c3ccccc3)CC2)c1=O` [14-2], for which the IC50 in assay [1] is 0.126 µM; in assay [2], 0.0501 µM; in assay [3], 6.31 µM.

For the compound `C/C(=C\c1ccccc1)CN1CCN(c2nccn(CC3CCCCC3)c2=O)CC1` [14-3], the IC50 was 0.398 µM in assay [1], 0.158 µM in assay [2] and 7.94 µM in assay [3].

As to `C/C(=C\c1ccccc1)CN1CCN(c2nccn(CC(=O)C(C)(C)C)c2=O)CC1` [14-4], the values for the IC50 in assay [1], in assay [2] and in assay [3] were 0.398 µM, 0.0631 µM and more than 10 µM, respectively.

With `C/C(=C\c1ccccc1)CN1CCC(N(C)c2nccn(Cc3ccc(CN)cc3)c2=O)CC1` [15-1], the results for the IC50 in assay [1], in assay [2] and in assay [3] were 0.0251 µM, 0.01 µM and 0.501 µM, respectively.

`C/C(=C\c1ccccc1)CN1CCC(N(C)c2nccn(Cc3ccc(CN(C)C)cc3)c2=O)CC1` [15-2]: the results for the IC50 in assay [1], in assay [2] and in assay [3] were 0.0316 µM, 0.00316 µM and 1 µM, respectively.

As to `C/C(=C\c1ccccc1)CN1CCC(N(C)c2nccn(CCN3CCCCC3)c2=O)CC1` [15-3], the IC50 is 0.1 µM in assay [1], 0.02 µM in assay [2] and 5.01 µM in assay [3].

With `C/C(=C\c1ccccc1)CN1CCC(N(C)c2nccn(CCCO)c2=O)CC1` [15-4], the results for the IC50 in assay [1], in assay [2] and in assay [3] were 0.0631 µM, 0.0398 µM and 2.51 µM, respectively.

On to `COCCOCCn1ccnc(N(C)C2CCN(C/C(C)=C/c3ccccc3)CC2)c1=O` [15-5], for which the IC50 in assay [1] is 0.126 µM; in assay [2], 0.0398 µM; in assay [3] it was 2 µM.

For the compound `C/C(=C\c1ccccc1)CN1CCC(N(C)c2nccn(CC3CCCCO3)c2=O)CC1` (stereo not drawn) [15-7], the IC50 in assay [1] was 0.0794 µM; in assay [2], 0.0398 µM; in assay [3], 3.16 µM.

For the compound `CN(C)CCn1ccnc(NC2CCN(C/C=C/c3ccccc3)CC2)c1=O` [16-1], the results for the IC50 in assay [1], in assay [2] and in assay [3] were 1.58 µM, 0.158 µM and more than 10 µM, respectively.

These data come from patent US20090111801A1, “SUBSTITUTED PYRAZINONE DERIVATIVES FOR USE AS A MEDICINE” (Janssen Pharmaceutica N.V., priority 2006, published 2009).
